Experimental data as given in patent publication US6818651B2, “(Dihydro) isoquinoline derivatives as phosphodiesterase inhibitors” (Altana Pharma AG, priority 2000, dated 2004).
Values belong to the molecule of their own block, whether it stands above or below them.

Target: T1, recombinant PDE7A1 (Homo sapiens, UniProt Q13946)
T1 construct: made in house; host or cells: SF21 insect cells (baculovirus; virus made in SF9)
Assay: Inhibition of PDE7 activity, modified SPA (scintillation proximity assay) test
Format: biochemical
Settings: recombinant PDE7A1 (1000×g supernatant of SF21 cells), 0.5 μM cAMP, [3H]cAMP SPA, 37° C.; read-out: −log IC50 (inhibition of PDE7 activity) (converted)
Excerpt: Cloning and expression of PDE7: The cDNAs for PDE7A1 and 7A2 (GenBank Acc-: L12052 and u67932, respectively) were isolated, using RT-PCR, from total cellular RNA derived from the T cell line CCRF-CEM and cloned into the cloning vector pCR2.1 (Invitrogen, Groningen, NL) under standard conditions (the manufacturer's instructions). For expression in insect cells, the cDNAs were subcloned into the baculo expression vector pCRBac (Invitrogen, Groningen, NL).
The recombinant baculoviruses were prepared, by means of homologous recombination in SF9 insect cells, by cotransfecting the plasmids containing baculovirus DNA (wild type, wt) Bac-N-Blue (Invitrogen, Groningen, NL) for PDE7A1 and containing Baculo-Gold DNA (Pharmingen, Hamburg) using a standard protocol (Pharmingen, Hamburg). Wt virus-free recombinant virus supernatants were selected using plaque assay methods. After that, high-titre virus supernatants were prepared by amplifying 3 times. For determining the enzyme activities, the PDEs were expressed in SF21 cells by infecting 2×10^6 cells/ml with an MOI (multiplicity of infection) ≈5 in serum-free SF900 medium (Life Technologies, Paisley, UK) in spinner flasks. The cells were cultured at 28° C., and at a rotationall speed of 75 rpm, for 48 hours, after which they were pelleted for 5-10 min at 1000 g and 4° C. and then resuspended in 1×PBS at a concentration of 1-3×10^6 cells/ml. The protein content was determined by the Bradford method (BioRad, Munich) using BSA as the standard.
The SF21 insect cells are resuspended, at a concentration of approx. 10^7 cells/ml, in ice-cold (4° C.) homogenization buffer (20 mM Tris, pH 8.2, containing the following additions: 140 mM NaCl, 3.8 mM KCl, 1 mM EGTA, 1 mM MgCl2, 1 mM β-mercaptoethanol, 2 mM benzamidine, 0.4 mM Pefablock, 10 μM leupeptin, 10 μM pepstatin A, 5 μM trypsin inhibitor) and disrupted by ultrasonication. The homogenate is then centrifuged for 10 min at 1000×g and the supernatant is stored at −80° C. until subsequent use (see below).
The PDE7 activity was inhibited by said compounds in a modified SPA (scintillation proximity assay) test, supplied by Amersham Pharmacia Biotech (see procedural instructions “Phosphodiesterase [3H]cAMP SPA enzyme assay, code TRKQ 7090”), carried out in 96-well microtitre plates (MTPs). The test volume is 100 μl and contains 20 mM Tris buffer (pH 7.4), 0.1 mg of BSA (bovine serum albumin)/ml, 5 mM Mg^2+, 0.5 μM cAMP (including about 50,000 cpm of [3H]cAMP), 2 μl of the respective substance dilution in DMSO and sufficient recombinant PDE7A1 (1000×g supernatant, see above) to ensure that 15-20% of cAMP is converted under said experimental conditions. After a preincubation of 5 min at 37° C., the reaction is started by adding a substrate (cAMP) and the assays are incubated for a further 15 min; after that, they are stopped by adding SPA beads (50 μl). In accordance with the manufacturer's instructions, the SPA beads had previously been resuspended in water and diluted 1:3 (v/v) and added to IBMX (3 mM). After the beads have been sedimented (>30 min), the MTPs are analyzed in commercially available measuring appliances and the corresponding IC50 values of the compounds for the inhibition of PDE7 activity are determined from concentration-effect curves by means of non-linear regression.
The inhibitory values [inhibitory concentration as −logIC50 (mol/l)] which were determined for the compounds according to the invention are shown in the following table 1, in which the numbers of the compounds correspond to the numbers of the examples.

T1 sequence (Q13946 whole entry): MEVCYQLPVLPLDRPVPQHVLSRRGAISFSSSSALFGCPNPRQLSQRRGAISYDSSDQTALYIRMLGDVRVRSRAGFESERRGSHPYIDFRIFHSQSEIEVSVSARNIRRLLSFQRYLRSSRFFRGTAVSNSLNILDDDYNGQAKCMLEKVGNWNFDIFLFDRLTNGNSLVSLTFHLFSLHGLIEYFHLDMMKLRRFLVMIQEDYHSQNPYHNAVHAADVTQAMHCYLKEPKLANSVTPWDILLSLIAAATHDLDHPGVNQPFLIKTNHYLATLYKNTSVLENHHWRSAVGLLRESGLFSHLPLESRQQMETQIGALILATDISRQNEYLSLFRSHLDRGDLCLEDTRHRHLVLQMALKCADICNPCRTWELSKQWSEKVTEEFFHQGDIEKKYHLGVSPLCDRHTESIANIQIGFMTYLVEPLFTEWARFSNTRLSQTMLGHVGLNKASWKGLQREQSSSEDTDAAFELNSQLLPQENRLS

Compound: COc1cc(C2=NCCc3ccc(Cl)cc32)ccc1NS(=O)(=O)c1ccc(OC(F)(F)F)cc1 [Compound 1a, 1-[4-(4-Trifluoromethoxybenzenesulfonamido)-3-methoxyphenyl]-7-chloro-3,4-dihydroisoquinoline]
IC50: 32.4 nM

Compound: COc1cc(C2=NCCc3ccc(Cl)cc32)ccc1NS(=O)(=O)c1ccc(C)cc1 [Compound 1b, 1-[4-(4-Methylbenzenesulfonamido)-3-methoxyphenyl]-7-chloro-3,4-dihydroisoquinoline]
IC50: 123 nM

Compound: COc1cc(C2=NCCc3ccccc32)ccc1NS(=O)(=O)c1ccc(-c2ccon2)s1 [Compound 2a, 1-[4-(5-(Isoxazol-3-yl)-thiophene-2-sulfonamido)-3-methoxyphenyl]-3,4-dihydroisoquinoline]
IC50: 295 nM

Compound: O=S(=O)(Nc1ccc(C2=NCCc3ccc(F)cc32)cc1)c1cccc(C(F)(F)F)c1 [Compound 4c, 1-[4-(3-Trifluoromethylbenzenesulfonamido)phenyl]-7-fluoro-3,4-dihydroisoquinoline]
IC50: 257 nM

Further lines, results first:

IC50: 389 nM
Compound: O=S(=O)(Nc1ccc(C2=NCCc3ccc(F)cc32)cc1)c1ccc2ccccc2c1 [Compound 4e, 1-[4-(Naphthalene-2-sulfonamido)phenyl]-7-fluoro-3,4-dihydroisoquinoline]

IC50: 245 nM
Compound: O=S(=O)(C=Cc1ccccc1)Nc1ccc(C2=NCCc3ccc(Cl)cc32)cc1 [Compound 6h, 1-[4-(2-Phenylethenesulfonamido)phenyl]-7-chloro-3,4-dihydroisoquinoline]

IC50: 380 nM
Compound: O=S(=O)(Nc1ccc(C2=NCCc3ccc(Cl)cc32)cc1)c1cc(Br)c(Cl)s1 [Compound 6m, 1-[4-(4-Bromo-5chlorothiophene-2-sulfonamido)phenyl]-7-chloro-3,4-dihydroisoquinoline]
